Source: PMC9741287, “Cytotoxic and Luminescent Properties of Novel Organotin Complexes with Chelating Antioxidant Ligand” (Molecules, 2022)

System: formation of advanced glycation end products (AGEs)
Experiment: Antiglycation activity (BSA-glucose, AGE fluorescence)
Type: biochemical
Settings: for Antiglycation activity, M ± SEM: 24 h at 60 °C
Protocol: The glycation reaction was carried out in a phosphate buffer solution of 0.05 M, pH 7.4. Composition of the reaction medium: 0.36 M glucose solution and 1 mg/mL BSA (fraction V). The test compounds were dissolved in 99% DMSO (final concentration in the reaction medium ~3%). The activity of compound 1 was studied in the concentration range of 1000–0.1 μM, and the activity of aminoguanidine was determined at concentrations of 10,000–1000 μM. Control samples contained an equivalent volume of solvent. The samples were incubated for 24 h at 60 °C.
Data registration was carried out by the spectrofluorimetric method, determining AGE by specific fluorescence at excitation/emission wavelengths of 370/440 nm (spectrofluorimeter M 200 PRO, TECAN Austria GmbH, Grödig, Austria).
In order to exclude false positive results for compounds suppressing AGE fluorescence due to interference, the obtained data were logarithmically normalized according to Equation (4):Fly(log) = 10^(log10(Exp)−log10(Blank)) − 1(4) where Fly(log) is the normalized AGE fluorescence intensity, log10(Exp) and log10(blank) are the decimal logarithms of the actual fluorescence levels of glycated and corresponding non-glycated samples (both containing the test compound and controls).
The activity of other compounds (both non-fluorescent and fluorescent at the wavelengths used) was expressed by the Equation (5):Fly(lin) = Exp − Blank(5) where Fly(lin) is the fluorescence intensity of AGEs, Exp and blank are the actual fluorescence levels of glycated and corresponding non-glycated samples (both those containing the test compound and controls).
Determination of activity expressed as % suppression of fluorescence of AGE, was made according to the Equation (6):% = 100 − (Fly(Exp) × 100/Fly(Contr))(6) where Fly(Exp) and Fly(Contr) are the CPG fluorescence intensity of experimental and control samples, respectively (log-normalized or non-log-normalized).

CC(C)(C)c1cc(C(=O)N/N=C/c2ccccc2O)cc(C(C)(C)C)c1O [Compound 1, Di-tert-butyl-4-hydroxy-N′-(2-hydroxybenzylidene)-benzohydrazine]
IC50: 2800 nM | Antiglycation activity, M ± SEM (concentration 0.3 µM): −1.9 ± 1.4% | Antiglycation activity, M ± SEM (concentration 1 µM): 0.6 ± 2.3% | Antiglycation activity, M ± SEM (concentration 3 µM): 53.9 ± 2.5% | Antiglycation activity, M ± SEM (concentration 10 µM): 60.1 ± 1.1% | Antiglycation activity, M ± SEM (concentration 30 µM): 62.0 ± 0.7% | Antiglycation activity, M ± SEM (concentration 100 µM): 61.6 ± 0.5% | Antiglycation activity, M ± SEM (concentration 300 µM): 73.2 ± 1.9% | Antiglycation activity, M ± SEM (concentration 1000 µM): 70.2 ± 8.0%
